In ChEMBL document CHEMBL2074105, “The potential for an interaction between MRP2 (ABCC2) and various therapeutic agents: probenecid as a candidate inhibitor of the biliary excretion of irinotecan metabolites” (Drug Metabol Pharmacokin, 2002) one finds Ki data, which are given here for ten compounds.

Test [1] deals with T1, ATP-binding cassette sub-family C member 2 (Rattus norvegicus, UniProt Q63120). Description: TP_TRANSPORTER: inhibition of DNP-SG uptake in bile canalicular membrane vesicles from SD rat. It is filed as functional, cell membranes, Sprague-Dawley, Bile canalicular membrane vesicle.
T1 sequence (Q63120 whole entry): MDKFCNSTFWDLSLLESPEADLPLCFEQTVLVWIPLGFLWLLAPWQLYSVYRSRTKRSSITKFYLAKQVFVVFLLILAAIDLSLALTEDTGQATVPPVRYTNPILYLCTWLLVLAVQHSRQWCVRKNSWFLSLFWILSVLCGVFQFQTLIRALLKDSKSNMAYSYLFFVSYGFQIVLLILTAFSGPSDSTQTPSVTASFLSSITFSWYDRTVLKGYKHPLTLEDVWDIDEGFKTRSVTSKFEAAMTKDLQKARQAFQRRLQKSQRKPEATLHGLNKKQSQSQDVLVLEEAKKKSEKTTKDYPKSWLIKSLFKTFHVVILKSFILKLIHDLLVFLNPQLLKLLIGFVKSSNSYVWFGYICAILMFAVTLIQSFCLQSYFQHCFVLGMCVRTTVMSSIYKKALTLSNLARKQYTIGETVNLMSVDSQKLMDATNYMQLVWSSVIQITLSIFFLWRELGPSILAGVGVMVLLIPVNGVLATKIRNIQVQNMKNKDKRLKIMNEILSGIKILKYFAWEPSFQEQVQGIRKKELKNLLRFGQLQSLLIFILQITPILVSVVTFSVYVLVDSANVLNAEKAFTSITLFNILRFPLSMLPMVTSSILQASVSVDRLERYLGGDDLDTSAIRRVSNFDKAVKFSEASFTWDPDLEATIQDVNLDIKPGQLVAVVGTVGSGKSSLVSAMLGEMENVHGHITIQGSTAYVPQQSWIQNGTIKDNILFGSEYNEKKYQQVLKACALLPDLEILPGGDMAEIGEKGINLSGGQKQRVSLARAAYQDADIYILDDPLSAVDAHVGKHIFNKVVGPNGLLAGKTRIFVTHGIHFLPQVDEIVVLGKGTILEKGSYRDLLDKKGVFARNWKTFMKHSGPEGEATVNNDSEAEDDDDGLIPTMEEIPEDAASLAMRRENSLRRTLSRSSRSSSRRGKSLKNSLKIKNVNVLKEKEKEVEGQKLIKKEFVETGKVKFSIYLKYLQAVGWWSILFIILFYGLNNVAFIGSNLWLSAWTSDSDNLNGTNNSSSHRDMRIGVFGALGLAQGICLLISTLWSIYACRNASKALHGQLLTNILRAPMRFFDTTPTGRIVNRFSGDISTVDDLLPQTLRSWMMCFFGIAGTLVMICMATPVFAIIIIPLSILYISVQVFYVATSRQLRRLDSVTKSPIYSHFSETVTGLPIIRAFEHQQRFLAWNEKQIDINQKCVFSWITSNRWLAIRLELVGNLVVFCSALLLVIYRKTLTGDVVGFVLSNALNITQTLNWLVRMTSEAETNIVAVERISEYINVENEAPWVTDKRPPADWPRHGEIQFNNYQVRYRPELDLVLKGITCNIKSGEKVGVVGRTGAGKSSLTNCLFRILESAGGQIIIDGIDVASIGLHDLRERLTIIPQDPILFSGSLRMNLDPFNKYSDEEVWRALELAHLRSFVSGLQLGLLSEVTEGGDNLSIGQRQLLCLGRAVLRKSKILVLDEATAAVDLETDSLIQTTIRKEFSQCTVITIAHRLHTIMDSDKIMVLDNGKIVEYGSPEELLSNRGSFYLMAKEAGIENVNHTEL
Test [2] has as its target T1, ATP-binding cassette sub-family C member 2. Description: TP_TRANSPORTER: inhibition of SN-38 uptake in bile canalicular membrane vesicles from SD rat. It is filed as functional, cell membranes, Sprague-Dawley, Bile canalicular membrane vesicle.
Test [3] deals with ATP-binding cassette sub-family C member 2 (Rattus norvegicus) (UniProt Q63120). Description: TP_TRANSPORTER: inhibition of SN-38 uptake in bile canalicular membrane vesicles.
Chain of ATP-binding cassette sub-family C member 2 (Rattus norvegicus) (Q63120 whole entry, looked up): as the sequence (Q63120 whole entry) above
Test [4] has as its target T1, ATP-binding cassette sub-family C member 2. Description: TP_TRANSPORTER: inhibition of DNP-SG uptake in blie canalicular membrane vesicle from SD rat. It counts as functional, cell membranes, Sprague-Dawley, Bile canalicular membrane vesicle.

In test [1], `N[C@@H](CCC(=O)N[C@@H](CSc1c(Br)c(Br)c2c(c1Br)C(=O)OC2(c1ccc(O)c(S(=O)(=O)O)c1)c1ccc(O)c(S(=O)(=O)O)c1)C(=O)NCC(=O)O)C(=O)O` came in with a Ki of 0.0461 µM.

Turning to `O=C(O)[C@H]1O[C@@H](Oc2cc3oc(-c4ccccc4)cc(=O)c3c(O)c2O)[C@H](O)[C@@H](O)[C@@H]1O` [BAICALIN], the affinity in test [1], expressed as Ki, was 7.95 µM.

With `CO/N=C(\C(=O)N[C@@H]1C(=O)N2C(C(=O)O)=C(CSc3nc(C)c(CC(=O)O)s3)CS[C@H]12)c1csc(N)n1` [CEFODIZIME], the Ki in test [1] was found to be 10 µM.

Take `CC1(C)[C@@H](O[C@H]2O[C@H](C(=O)O)[C@@H](O)[C@H](O)[C@H]2O[C@@H]2O[C@H](C(=O)O)[C@@H](O)[C@H](O)[C@H]2O)CC[C@]2(C)[C@H]3C(=O)C=C4[C@@H]5C[C@@](C)(C(=O)O)CC[C@]5(C)CC[C@@]4(C)[C@]3(C)CC[C@@H]12` [GLYCYRRHIZIN]: the Ki in test [2] stood at 1910 nM; in test [1] it was 0.84 µM.

In test [1], `CC1(C)C(/C=C/C=C/C=C/C=C2\N(CCCCS(=O)(=O)O)c3ccc4ccccc4c3C2(C)C)=[N+](CCCCS(=O)(=O)[O-])c2ccc3ccccc3c21` [INDOCYANINE GREEN] showed a Ki of 1 µM.

Consider `Nc1nc2c(c(=O)[nH]1)N(C=O)C(CNc1ccc(C(=O)N[C@@H](CCC(=O)O)C(=O)O)cc1)CN2` (stereo partly drawn) [LEUCOVORIN], for which the Ki in test [1] is 132 µM.

With `O=C(Nc1cccc2c(=O)cc(-c3nnn[nH]3)oc12)c1ccc(OCCCCc2ccccc2)cc1` [PRANLUKAST], in test [1], the affinity corresponds to a Ki of 41.1 µM.

On to `CCCN(CCC)S(=O)(=O)c1ccc(C(=O)O)cc1` [PROBENECID], for which the Ki was found to be 42.2 µM in test [3] and 44.6 µM in test [4].

Regarding `O=C1OC(c2ccc(O)c(S(=O)(=O)O)c2)(c2ccc(O)c(S(=O)(=O)O)c2)c2c(Br)c(Br)c(Br)c(Br)c21` [SULFOBROMOPHTHALEIN SODIUM], the results for the Ki in test [2] and in test [1] were 2870 nM and 2.18 µM, respectively.

In the case of CREMOPHOR EL, the Ki in test [1] was determined as 281 µM.

The Ki is the dissociation constant of the complex between target and ligand, obtained from inhibition or displacement. Read a low Ki as higher affinity.
